This note sets out measurements from patent publication US20260324636A1, “COMPOSITION FOR PROVIDING PLANT WITH STRESS RESISTANCE” (KIRIN HOLDINGS KABUSHIKI KAISHA, priority 2022, published 2026).

Test [1] relates to ZAT10. The experiment in a line: Histone H4 acetylation level of ZAT10 by chromatin immunoprecipitation and quantitative PCR, Example 14. It is filed as in vivo, Arabidopsis thaliana (Col-0). The note with it: Arabidopsis thaliana; 0.4 mM in medium, 2 hours after application; read-out: histone H4 acetylation level of ZAT10, increase vs group not subjected to the treatment. On the procedure:
A wild-type Arabidopsis thaliana strain (accession: Col-0) was used as an experimental material. Seeds were purchased from Inplanta Innovations Inc.
A liquid medium containing a ½ Murashige and Skoog Plant Salt Mixture (Nacalai) and 1 (w/v) % sucrose (FUJIFILM Wako) was used as a growth medium.
Arabidopsis thaliana seeds were sterilized with the use of a Kitchen Haiter® liquid (Kao Corporation) diluted to one-half concentration with distilled water for 3 minutes, washed 3 times with sterile distilled water, and then incubated at 4° C. overnight. The growth medium (100 ml) was prepared in a 300-ml flask, the incubated seeds were seeded therein, the flask was transferred to an incubator (TOMY), and shake culture was then initiated. The incubator was maintained at a temperature of 22° C. for a daily cycle of 16 hours light and 8 hours darkness, and the rotation speed of the shaker was set at 180 rpm.
A stock solution of N-acetylglutamic acid (Tokyo Chemical Industry Co., Ltd.) was added to Arabidopsis thaliana 7 days after seeding to the final concentration of 0 mM and 0.4 mM in the media, followed by incubation for 2 hours. Sample fixation following incubation was performed in accordance with Yamaguchi et al (Arabidopsis Book, Feb. 17, 2014; 12: e0170). […]

In test [2] the test system is H1ZAT10. Briefly: H1ZAT10 gene expression by real-time PCR, Example 13. The format is in vivo, hop. The settings on record: 1 mM in medium, 20° C. for 2 hours, leaves; read-out: H1ZAT10 expression level, increase vs control. The text has this: The materials as used in Example 4 were used.
The medium as used in Example 4 were used.
In order to design primers for the target genes necessary for gene expression analysis by real-time PCR, homologs of Arabidopsis thaliana oxidation stress-responsive genes in hop were searched for. The amino acid sequences of Arabidopsis thaliana ZAT10 (AGI code: AT1G27730) and ZAT12 (AGI code: AT5G59820) were obtained from TAIR (https://www.arabidopsis.org/), and the nucleotide sequences of the gene homologs were obtained using Hopbase (http:/hopbase.cgrb.oregonstate.edu/). […] As the reference gene, the nucleotide sequence of the homolog of Arabidopsis thaliana EF1α (AGI code: AT1G18070) was obtained. The hop homolog genes were designated as H1ZAT10, H1ZAT12, and HIEF1α, respectively.
The leaves in the first and the second nodes from the apical buds of the tissue-cultured seedlings were sampled 1.5 months after the initiation of subculture and inoculated into a liquid medium consisting of a ½ Murashige and Skoog Plant Salt Mixture and 2 (w/v) % glucose. Specifically, a liquid medium was dispensed at 5 ml/well to a 6-well microplate, and 5 hop leaves were mounted thereon. […]
Thereafter, the relative expression levels of the target genes upon N-acetylglutamic acid treatment were calculated by the ΔΔCt method.

Molecules are shown by their SMILES.

For `CC(=O)N[C@@H](CCC(=O)O)C(=O)O` [N-acetylglutamic acid], the fold induction at 400 µM in test [1] turned out to be 1.9. In addition, in test [2], the fold induction at 1000 µM was 1.7.
